Measured values from PubChem BioAssay (NCI).
Where “and” joins values, the source holds several entries; their conditions need not be identical. Equal values may be shown once.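 Each compound was tested at five concentrations against cells in 96-well plates for 48 hours. GI50 = concentration required for 50% inhibition of growth. Definition used: TGI = concentration required for complete inhibition of growth.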

Assays:
Assay in all cases: NCI-60 cell line screen, 48 h
A498 renal = system: A498 renal
CAKI-1 renal = system: CAKI-1 renal
COLO 205 colon = system: COLO 205 colon
IGROV1 ovarian = system: IGROV1 ovarian
KM12 colon = system: KM12 colon
M14 melanoma = system: M14 melanoma
OVCAR-8 ovarian = system: OVCAR-8 ovarian
SF-268 CNS = system: SF-268 CNS
SNB-19 CNS = system: SNB-19 CNS
HOP-92 NSCLC = system: HOP-92 NSCLC

Compound | TGI (A498 renal) | TGI (CAKI-1 renal) [µM] | TGI (COLO 205 colon) [µM] | TGI (IGROV1 ovarian) | TGI (KM12 colon) | TGI (M14 melanoma) | TGI (OVCAR-8 ovarian) | TGI (SF-268 CNS) | TGI (SNB-19 CNS) | TGI (HOP-92 NSCLC) | GI50 (A498 renal) | GI50 (CAKI-1 renal) [µM] | GI50 (HOP-92 NSCLC) | GI50 (IGROV1 ovarian) | GI50 (OVCAR-8 ovarian) | GI50 (SF-268 CNS) | GI50 (SNB-19 CNS) | GI50 (COLO 205 colon) [µM] | GI50 (KM12 colon) [µM] | GI50 (M14 melanoma) [µM]
Cc1ccc(/C=C/C(=O)c2ccc([N+](=O)[O-])cc2)cc1 | 19.1 µM | > 100 | > 100 | > 100 µM | > 100 µM | > 100 µM | > 100 µM | > 100 µM | > 100 µM |  |  |  |  |  |  |  |  |  |  | 
C=C1CCC2C(C)(CO)C(O)CCC2(C)C1C/C=C1/CCOC1=O (configuration not stated) | > 100 µM | > 100 | > 100 | > 100 µM | > 100 µM | > 100 µM | > 100 µM |  | > 100 µM | > 100 µM |  |  |  |  |  |  |  |  |  | 
Cc1cc(NCc2cc(Nc3ccnc4cc(Cl)ccc34)ccc2F)nc(N2CCSCC2)n1 | 10.4 µM | 3.19 |  | 4.42 µM |  |  | 9.23 µM | 5.27 µM | 60.7 µM | 2.32 µM | 2.18 µM | 1.51 | 0.998 µM | 1.83 µM | 2.54 µM | 1.9 µM | 4.23 µM |  |  | 
COc1ccc(-c2nnc(SCC(=O)Nc3ccc(C(=O)/C=C/c4cc(OC)c(OC)c(OC)c4)cc3)n2-c2ccccc2)cc1OC | > 10 µM | > 10 | > 10 | > 10 µM | > 10 µM | > 10 µM | > 10 µM | > 10 µM | > 10 µM |  | 5 µM | 8.57 |  | 7.72 µM | 5.29 µM | 3.46 µM | > 10 µM | > 10 | 2.38 | 3.33
CCCC(C)c1c(Cl)nc(Cl)nc1Cl (configuration not stated) |  |  | 15.8 | 36.4 µM | 10.2 µM | 3.92 µM | 55.9 µM | > 100 µM | 35.6 µM |  |  |  |  |  |  |  |  |  |  | 
Nc1nccc2c1ccn2-c1cccc(NC(=O)c2ccc(N3CCOCC3)c(C(F)(F)F)c2)c1 | 2.05 µM | > 19 |  | > 46.5 µM | 2.73 µM | 7.6 µM | 10.3 µM | > 46.7 µM | > 50 µM | 3.23 µM | 0.304 µM | 0.531 | 0.347 µM | 0.869 µM | 1.34 µM | 1.21 µM | 1.58 µM |  | 0.313 | 0.788
COc1ccc(/C=C\c2cc(OC)c(OC)c(OC)c2)cc1OCC(=O)Nc1nc2ccccc2s1 | > 83.4 µM | > 35.8 | > 49.5 | > 81.4 µM | > 100 µM | > 100 µM | > 100 µM | > 100 µM |  | > 31.1 µM | 0.346 µM | 0.309 | 0.204 µM | 0.221 µM | 0.257 µM | 0.23 µM |  | 3.26 | 0.0646 | 0.0527
Cc1cccc(C(C)C)c1NC(=O)CCl | > 100 µM | 91.7 | > 100 |  | > 100 µM | > 100 µM |  | > 100 µM | > 100 µM | > 100 µM |  |  |  |  |  |  |  |  |  | 
CC(C)CN1CC(C)C(=O)NC1=O (configuration not stated) | > 100 µM | > 100 | > 100 |  | > 100 µM |  | > 100 µM | > 100 µM | > 100 µM | > 100 µM |  |  |  |  |  |  |  |  |  | 
CCCCCCCCNC(C)C(O)c1ccc(SC(C)C)cc1 (configuration not stated) | 2.86 µM | 3.08 | 3 | 3.38 µM | 3.18 µM | 3.26 µM |  | 3.14 µM | 3.28 µM | 2.53 µM | 1.5 µM | 1.54 | 1.17 µM | 1.81 µM |  | 1.67 µM | 1.64 µM | 1.62 | 1.76 | 1.72
CN(C)C(=S)/N=c1\ss/c(=N\C(=S)N(C)C)n1Cc1ccco1 | > 100 µM | > 100 | > 100 | > 100 µM | > 100 µM | > 100 µM | > 100 µM | > 100 µM | > 100 µM |  |  |  |  |  |  |  |  |  |  | 
COc1ccc(OC(C)C(=O)O)c2c1CCCC2=O (configuration not stated) | > 100 µM |  | > 100 | > 100 µM | > 100 µM | > 100 µM | > 100 µM | > 100 µM | > 100 µM |  |  |  |  |  |  |  |  |  |  | 
COc1ccc(-c2nc(-c3ccccn3)c(-c3ccccn3)n2CC(C)C)cc1OC1CCCC1 | 82.7 µM | 90.2 | > 165 | > 165 µM | > 165 µM | 114 µM | 158 µM | > 165 µM | > 165 µM |  | 16.5 µM | 7.44 |  | 11.5 µM | 17.3 µM | 43.8 µM | 30.2 µM | 52.2 | 11.1 | 22.7
CCOC(=O)C(=O)Nc1ccccc1OCC |  | > 100 |  | > 100 µM | > 100 µM | > 100 µM | > 100 µM | > 100 µM | > 100 µM | > 100 µM |  |  |  |  |  |  |  |  |  | 
CC[C@H]1CN(C)[C@H]2Cc3c([nH]c4ccccc34)C(=O)C[C@H]1C2C(=O)OC (some centres not stated) | > 100 µM |  | > 100 | > 100 µM | > 100 µM | > 100 µM | > 100 µM | > 100 µM | > 100 µM | > 100 µM |  |  |  |  |  |  |  |  |  | 
O=C1C(Br)=C(Br)C(=O)c2ccccc21 | > 100 µM and 27.1 µM | 13.7 |  | 45.5 µM and 17.4 µM | 36.9 µM and 33.3 µM | 28.4 µM and 22.6 µM | 30.9 µM and 57 µM | 57.7 µM and 12.9 µM | 37.9 µM and 17.4 µM | 27 µM and 4.59 µM | 48.5 µM and 13.4 µM |  | 13.4 µM and 1.73 µM | 16.9 µM and 6.06 µM | 17 µM and 7.06 µM | 23.3 µM and 3.27 µM | 18.8 µM and 9.17 µM |  |  | 
C=C(C)[C@@H]1CC[C@]2(C(=O)O)CC[C@]3(C)[C@H](CC[C@@H]4[C@@]5(C)C/C(=C/c6cccc(I)c6)C(=O)C(C)(C)[C@@H]5CC[C@]43C)[C@@H]12 | 6.72 µM | 10.7 |  | 8.7 µM | 3.6 µM | 5.21 µM | 14.3 µM | 15.1 µM | 17.5 µM | 5.28 µM | 2.1 µM | 2.22 | 1.72 µM | 2.57 µM | 2.87 µM | 3.17 µM | 3.28 µM |  | 1.59 | 2.14
